The results in this text go back to US20110112097A1, “Substituted imidazoline-2,4-diones, process for preparation thereof, medicaments comprising these compounds and use thereof” (SANOFI-AVENTIS, priority 2008, published 2011).

Counter-ions that a name gives are not always drawn. Like-named read-outs stand apart in the source and are kept apart here.

Assay [1] deals with T1, hCB1R (Homo sapiens, UniProt P21554). Description: Binding to the CB1 receptor ([3H]-SR141716A displacement). How it is done: Binding to the CB1 Receptor:
Test compounds: The compounds (3 μl, 10 mM, 100% DMSO), pipetted into 96-well PP microtiter plates, were diluted with 27 μl of 100% DMSO (dimethyl sulfoxide). Proceeding from this solution, further 3-fold dilution steps were undertaken by transferring 10 μl in each case to a new PP microtiter plate and adding a further 20 μl of 100% DMSO. In each case 6 μl of these solutions were transferred into new 96-well PP microtiter plates and made up with 144 μl of assay buffer. The end concentrations ranged from 10 μM to 0.005 μM.
Negative control: AM 251, dissolved in assay buffer with 1% DMSO, was added to the dilution series in the microtiter plates as a control. The end concentration was 1 μM.
Blank control: assay buffer with 1% DMSO was added to the dilution series of the microtiter plates as a blank control.
Summary of the Assay Parameters:
High control: ^3H binding without addition of the compound Low control: ^3H binding in the presence of 1 μM AM 251
The values were calculated using the corrected raw data.
The values reported were obtained as average values of a double determination. The IC50 values were calculated from the measurements with the program Xlfit, formula 205. Ki values were obtained from the IC50 and Kd values utilizing the Cheng-Prusoff equation:
[formula] • Literature: Cheng, Y.-C., and Prusoff, W. H. (1973) Biochem. Pharmacol 22, 3099-3108

For assay [2], the target named is T1, hCB1R. The experiment in a line: In vitro functional assay with recombinant cells (FLIPR, intracellular Ca2+), CB1. In kind it is cell-based. More on the design: expressed in transfected cells; host or cells: HEK293. Here is the method: (§1) In vitro functional assays with recombinant cells:
(§2) Function-testing assays were performed by means of the FLIPR technique (“Fluorometric Imaging Plate Reader”, Molecular Devices Corp.).
(§3) To this end, ligand-induced changes in the intracellular concentration of Ca^2+ in recombinant HEK293 cells, which expressed both a cannabinoid receptor (CB1 or CB2) and G-protein Galpha16, were determined. For the studies, cells were sown into 96-well microtiter plates (60 000 cells/well) and left to grow overnight. The medium was removed and the cells were incubated in buffer which contained the fluorescent dye Fluo-4. After this loading with dye, the cells were washed, test substance was added dissolved in buffer, the mixture was incubated for 20 minutes, a known cannabinoid receptor agonist as a reference agonist was added in buffer and, finally, the changes in the intracellular Ca^2+ concentration were measured in the FLIPR unit.

Assay [3] concerns the target T2, hCB2R (Homo sapiens, UniProt P34972).
T2 construct: expressed in transfected cells; host or cells: HEK293
Description: In vitro functional assay with recombinant cells (FLIPR, intracellular Ca2+), CB2. In kind it is cell-based. The conditions noted are these: recombinant HEK293 cells expressing CB2 and G-protein Galpha16; 20 min preincubation, then reference agonist; Ca2+ change (Fluo-4). Here is the method: as §1, §2, §3
Results were presented as the percentage change relative to the control (0%: analogous experiment without test substance and without reference agonist, i.e. only with buffer; 100%: analogous experiment without test substance, but with reference agonist in excess), and used to calculate dose/action curves, and IC50 values were determined

Setting [4] is: CHO-K1/cannabinoid CB1 protein 2 μg/well, [3H]-SR141716A 0.5 nM, Ki from IC50 by Cheng-Prusoff, average of double determination, read-out: hCB1R, binding Ki.
[5] abbreviates: recombinant HEK293 cells expressing CB1 and G-protein Galpha16, 20 min preincubation, then reference agonist, Ca2+ change (Fluo-4), read-out: hCB1R: FLIPR, IC50.

T1 sequence (P21554 whole entry): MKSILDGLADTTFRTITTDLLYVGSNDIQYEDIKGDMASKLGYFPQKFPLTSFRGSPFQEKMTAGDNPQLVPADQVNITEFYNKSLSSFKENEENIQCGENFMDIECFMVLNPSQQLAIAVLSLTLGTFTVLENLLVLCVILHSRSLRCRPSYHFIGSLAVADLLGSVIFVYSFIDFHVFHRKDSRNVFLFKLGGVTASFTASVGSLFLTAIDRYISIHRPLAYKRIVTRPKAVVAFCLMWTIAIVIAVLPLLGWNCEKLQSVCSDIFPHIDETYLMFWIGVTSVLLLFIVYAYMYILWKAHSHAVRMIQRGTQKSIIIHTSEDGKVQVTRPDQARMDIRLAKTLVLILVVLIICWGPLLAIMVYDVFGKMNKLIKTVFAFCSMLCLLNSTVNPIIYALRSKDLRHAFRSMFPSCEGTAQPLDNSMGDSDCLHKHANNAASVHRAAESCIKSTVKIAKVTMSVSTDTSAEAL
T2 sequence (P34972 whole entry): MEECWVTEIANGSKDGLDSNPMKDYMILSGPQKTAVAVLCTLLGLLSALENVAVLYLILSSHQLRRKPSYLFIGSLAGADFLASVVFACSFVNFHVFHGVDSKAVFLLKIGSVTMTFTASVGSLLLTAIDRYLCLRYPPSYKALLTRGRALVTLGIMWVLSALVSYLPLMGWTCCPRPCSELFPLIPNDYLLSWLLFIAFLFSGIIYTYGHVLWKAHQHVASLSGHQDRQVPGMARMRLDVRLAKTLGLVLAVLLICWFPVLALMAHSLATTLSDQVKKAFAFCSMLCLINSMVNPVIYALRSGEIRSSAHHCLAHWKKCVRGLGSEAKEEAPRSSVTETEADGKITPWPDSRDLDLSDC

As for `CC1(C)C(=O)N(c2ccc(C#N)c(C(F)(F)F)c2)C(=O)N1Cc1ccc(F)cc1C(=O)c1ccc(C#N)cc1` [Example 150, 4-{3-[2-(4-Cyano-benzoyl)-4-fluorobenzyl]-4,4-dimethyl-2,5-dioxo-imidazolidin-1-yl}-2-tri-fluoromethylbenzonitrile], the Ki in assay [1] (setting [4]) was determined as 0.018 µM. Besides, the IC50 in assay [2] came out at 0.011 µM.

`CC1(C)C(=O)N(c2ccc(C#N)c(C(F)(F)F)c2)C(=O)N1Cc1ccccc1Cc1ccccc1` [Example 88, 4-[3-(2-benzylbenzyl)-4,4-dimethyl-2,5-dioxoimidazolidin-1-yl]-2-trifluoromethylbenzonitrile] showed a Ki in assay [1] of 0.002 µM. The IC50 in assay [3] was > 30 µM; in assay [2], 0.013 µM. Consider `CC1(C)C(=O)N(c2ccc(C#N)c(S(F)(F)(F)(F)F)c2)C(=O)N1Cc1ccccc1Cc1ccccc1` [Example 102, 4-[3-(2-Benzylbenzyl)-4,4-dimethyl-2,5-dioxo-imidazolidin-1-yl]-2-pentafluorosulfanyl-benzonitrile], for which the Ki in assay [1] (setting [4]) came out at 0.019 µM. In addition, the IC50 in assay [2] turned out to be 0.045 µM. The like results for `CC1(C)C(=O)N(c2ccnc(C(F)(F)F)c2)C(=O)N1Cc1ccccc1Cc1ccccc1` [Example 119, 1-(2-Benzylbenzyl)-5,5-dimethyl-3-(2-trifluoromethylpyridin-4-yl)imidazolidine-2,4-dione; hydrochloride] were, in that order, 0.023 µM and 0.097 µM. In the case of `CC1(C)C(=O)N(c2cc(C(F)(F)F)ccc2F)C(=O)N1Cc1ccccc1Cc1ccccc1` [Example 11], the Ki in assay [1] (setting [4]) turned out to be 0.132 µM. Consider `CC1(C)C(=O)N(c2ccc(Cl)c(Cl)c2)C(=O)N1Cc1ccccc1Cc1ccccc1` [Example 64], for which the Ki in assay [1] (setting [4]) worked out at 0.097 µM.

On to `CC1(C)C(=O)N(c2ccc(Oc3ccc(Cl)cc3)c(C(F)(F)F)c2)C(=O)N1Cc1ccccc1Cc1ccccc1` [Example 101, 1-(2-Benzylbenzyl)-3-[4-(4-chlorophenoxy)-3-trifluoromethylphenyl]-5,5-dimethylimidazolidine-2,4-dione], for which the Ki in assay [1] (setting [4]) came out at 0.099 µM. Consider `COC(=O)c1ccc(C(=O)c2ccc(CN3C(=O)N(c4ccc(F)c(C(F)(F)F)c4)C(=O)C3(C)C)cc2)cc1` [Example 151, Methyl 4-{4-[3-(4-fluoro-3-trifluoromethylphenyl)-5,5-dimethyl-2,4-dioxo-imidazolidin-1-ylmethyl]-benzoyl}benzoate], for which, in assay [1] (setting [4]), the Ki was 0.062 µM.

As for `CC(C)(C)c1cc(N2C(=O)N(Cc3ccccc3Cc3ccccc3)C(C)(C)C2=O)ccc1C#N` [Example 118, 4-[3-(2-Benzylbenzyl)-4,4-dimethyl-2,5-dioxo-imidazolidin-1-yl]-2-tert-butylbenzonitrile], the Ki in assay [1] came out at 0.005 µM. The results for the IC50 in assay [3] and in assay [2] (setting [5]) were > 10 µM and 0.114 µM, respectively. In the case of `CC1(C)C(=O)N(c2cc(Cl)cc(Cl)c2)C(=O)N1Cc1ccccc1Cc1ccccc1` [Example 65], in assay [1] (setting [4]), the Ki is 0.153 µM. As to `CC1(C)C(=O)N(c2ccc(F)c(C(F)(F)F)c2)C(=O)N1Cc1ccccc1Cc1ccccc1` [Example 79], the Ki in assay [1] is 0.044 µM. The IC50 in assay [3] was > 10 µM; in assay [2] (setting [5]), 0.103 µM.

Take `CC1(C)C(=O)N(c2ccnc(Cl)c2)C(=O)N1Cc1ccccc1Cc1ccccc1` [Example 117, 1-(2-Benzylbenzyl)-3-(2-chloropyridin-4-yl)-5,5-dimethylimidazolidine-2,4-dione]: in assay [1] (setting [4]), the Ki is 0.094 µM. As for `CC1(C)C(=O)N(c2ccc(C#N)c(C(F)(F)F)c2)C(=O)N1Cc1ccc(F)cc1C(=O)c1ccc(C(F)(F)F)cc1` [Example 155, 4-{3-[4-Fluoro-2-(4-trifluoromethylbenzoyl)-benzyl]-4,4-dimethyl-2,5-dioxoimidazolidin-1-yl}-2-trifluoromethylbenzonitrile], the Ki in assay [1] (setting [4]) is 0.069 µM. `CC1(C)C(=O)N(c2ccc(F)c(F)c2)C(=O)N1Cc1ccccc1Cc1ccccc1` [Example 41]: the Ki in assay [1] (setting [4]) was found to be 0.188 µM. For `CC1(C)C(=O)N(c2ccc(C#N)nc2)C(=O)N1Cc1ccccc1Cc1ccccc1` [Example 123, 543-(2-Benzylbenzyl)-4,4-dimethyl-2,5-dioxo-imidazolidin-1-yl]pyridine-2-carbonitrile; hydrochloride], in assay [1] (setting [4]), the Ki amounted to 0.14 µM.

`CC1(C)C(=O)N(c2ccc(C#N)c(C(F)(F)F)c2)C(=O)N1Cc1ccc(C(=O)c2ccccc2)cc1` [Example 132, 4-[3-(4-benzoylbenzyl)-4,4-dimethyl-2,5-dioxo-imidazolidin-1-yl]-2-trifluoromethylbenzonitrile] had a Ki in assay [1] of 0.074 µM. Besides, the IC50 in assay [3] was > 10 µM; in assay [2] (setting [5]) it was 0.103 µM.

With `CN1CCC2(CC1)C(=O)N(c1ccc(C#N)c(C(F)(F)F)c1)C(=O)N2Cc1ccccc1Cc1ccccc1` [Example 111, 4-[1-(2-Benzylbenzyl)-8-methyl-2,4-dioxo-1,3,8-triazaspiro[4.5]dec-3-yl]-2-trifluoromethylbenzo-nitrile; trifluoroacetate], the Ki in assay [1] (setting [4]) was 0.061 µM. `CSc1cccc(N2C(=O)N(Cc3ccccc3Cc3ccccc3)C(C)(C)C2=O)c1` [Example 4]: in assay [1] (setting [4]), the Ki was determined as 0.217 µM.

Take `N#Cc1ccc(N2C(=O)N(Cc3ccccc3Cc3ccccc3)C3(CCCC3)C2=O)cc1C(F)(F)F` [Example 106, 4-[1-(2-Benzylbenzyl)-2,4-dioxo-1,3-diazaspiro[4.4]-non-3-yl]-2-trifluoro-methylbenzonitrile]: the Ki in assay [1] worked out at 0.011 µM. The IC50 in assay [3] is > 10 µM; in assay [2], 0.076 µM. `CC1(C)C(=O)N(c2ccc(C#N)c(C(F)(F)F)c2)C(=O)N1Cc1ccc(F)cc1C(=O)c1ccc(Cl)cc1` [Example 139, 4-{3-[2-(4-Chloro-benzoyl)-4-fluorobenzyl]-4,4-dimethyl-2,5-dioxo-imidazolidin-1-yl}-2-trifluoromethylbenzonitrile]: the Ki in assay [1] (setting [4]) was found to be 0.077 µM. Still for that read-out and setting: next, `COC(=O)c1ccc(Cc2ccccc2CN2C(=O)N(c3ccc(F)c(C(F)(F)F)c3)C(=O)C2(C)C)cc1` [Example 144, methyl 4-{2-[3-(4-fluoro-3-trifluoromethylphenyl)-5,5-dimethyl-2,4-dioxoimidazolidin-1-ylmethyl]benzyl}benzoate]: 0.037 µM; `CC1(C)C(=O)N(c2cccc(C(F)(F)F)c2)C(=O)N1Cc1ccccc1Cc1ccccc1` [Example 7]: 0.095 µM; `N#Cc1ccc(N2C(=O)N(Cc3ccccc3Cc3ccccc3)C3(CCCCC3)C2=O)cc1C(F)(F)F` [Example 114, 4-[1-(2-Benzylbenzyl)-2,4-dioxo-1,3-diazaspiro[4.5]dec-3-yl]-2-trifluoromethylbenzonitrile]: 0.063 µM. As for `CCc1cccc(N2C(=O)N(Cc3ccccc3Cc3ccccc3)C(C)(C)C2=O)c1` [Example 1, 1-(2-Benzylbenzyl)-3-(3-ethylphenyl)-5,5-dimethylimidazolidine-2,4-dione], the Ki in assay [1] (setting [4]) stood at 0.218 µM. Still for that read-out and setting: next, `CC1(C)C(=O)N(c2cccc(C#N)c2)C(=O)N1Cc1ccccc1Cc1ccccc1` [Example 16]: 0.174 µM; `CC1(C)C(=O)N(c2cccc(SC(F)(F)F)c2)C(=O)N1Cc1ccccc1Cc1ccccc1` [Example 13]: 0.066 µM.

As for `COC(=O)c1ccc(Cc2ccccc2CN2C(=O)N(c3ccc(C#N)c(C(F)(F)F)c3)C(=O)C2(C)C)cc1` [Example 143, methyl 4-{2-[3-(4-cyano-3-trifluoromethylphenyl)-5,5-dimethyl-2,4-dioxoimidazolidin-1-ylmethyl]benzyl}benzoate], the Ki in assay [1] (setting [4]) was 0.013 µM. Further, the IC50 in assay [2] was determined as 0.065 µM.

With `N#Cc1ccc(N2C(=O)N(Cc3ccccc3Cc3ccccc3)C3(CCCCCC3)C2=O)cc1C(F)(F)F` [Example 116, 4-[1-(2-Benzylbenzyl)-2,4-dioxo-1,3-diazaspiro[4.6]undec-3-yl]-2-trifluoromethylbenzonitrile], the Ki in assay [1] (setting [4]) came out at 0.026 µM.
